This assay deals with CCRF-CEM. Briefly: Cytotoxicity against human CCRF-CEM cells. In kind it is functional, cell-based.

Structures are written as SMILES. ≈ marks a conversion by molar mass, not a printed value.

For `CC[C@H](O)C[C@@H]1CN(C=O)CCc2c([nH]c3ccccc23)[C@@](C(=O)OC)(c2cc3c(cc2OC)N(C=O)[C@H]2[C@@](O)(C(=O)OC)[C@H](OC(C)=O)[C@]4(CC)C=CCN5CC[C@]32[C@@H]54)C1`, the IC50 – broadly, the concentration at which inhibition is half-maximal – was determined as 7.1 µg/mL (≈ 8.44 µM).
For the compound `CCC(=O)C[C@@H]1CN(C=O)CCc2c([nH]c3ccccc23)[C@@](C(=O)OC)(c2cc3c(cc2OC)N(C)[C@H]2[C@](O)(C(=O)OC)[C@H](OC(C)=O)[C@]4(CC)C=CCN5CC[C@]32[C@@H]54)C1` [CATHARININE], the IC50 amounted to 7.7 µg/mL (≈ 9.33 µM).
For `CC[C@]1(O)C[C@@H]2CN(CCc3c([nH]c4ccccc34)[C@@](C(=O)OC)(c3cc4c(cc3OC)N(C)[C@H]3[C@@](O)(C(=O)OC)[C@H](OC(C)=O)[C@]5(CC)C=CCN6CC[C@]43[C@@H]65)C2)C1` [VINBLASTINE], the IC50 was 0.03 µg/mL (≈ 0.037 µM).
Compound `CC[C@]1(O)C[C@H]2CN(CCc3c([nH]c4ccccc34)[C@@](C(=O)OC)(c3cc4c(cc3OC)N(C=O)[C@H]3[C@@](O)(C(=O)OC)[C@H](OC(C)=O)[C@]5(CC)C=CCN6CC[C@]43[C@@H]65)C2)C1` [VINCRISTINE] came in with an IC50 of 0.06 µg/mL (≈ 0.0727 µM).
